The values that follow come from US9017654B2, “Preparation for vaccination, vaccination method and use of a vaccination preparation” (priority 2004, dated 2015).

The subject of assay [1] is CFSE-marked syngenic spleen cells charged with SGP peptide (target cells for the CTLs). The assay can be described thus: In vivo killer assay. On the set-up: species or system mice. The following applies: for specific reaction (FIG. 2, functionality of transcutaneously activated CTL): transcutaneous treatment, in vivo killer assay 6 days after immunisation. On the procedure:
The specific cytotoxic functionality of the activated cells was determined by means of what is known as an in vivo killer assays 6 days after the last immunisation. For this purpose spleen cells marked with CFSE (5,6-carboxyfluorescein diacetate succinimidylester, Molecular Probes) from syngenic mice were used as target cells for the cytotoxic T cells (CTLs). Half of the cells were dyed with 3 μM CFSE, the other half with 0.3 μM CFSE. The cells marked with 3 μM CFSE were charged with the synthetic SGP peptide (10 μM peptide; 40×10^6 cells per ml ISC medium; 1 h; 37° C.) and these were then washed twice with medium and twice with PBS. The cells marked with 0.3 μM CFSE were only incubated in ISC medium and also washed. The cells were mixed in a ratio of 1:1 and the mice were injected in vivo with 15×10^6 cells in 300 μl PBS in each case. After 18 h the mice were killed and the spleen cells removed and flow cytometrically analysed. The CFSE-positive cells were counted in a FACS-Canto flow cytometer. The specific lysis resulted from the ratio of cell counts of the cells charged with peptide and strongly marked with CFSE and the cells that were not charged with peptide and were weakly marked with CFSE. Since the two cell populations had been used in a ratio of 1:1 the number of cells not charged with peptide tallies with the original number of cells charged with peptide. The specific lysis is then calculated as follows:
[formula] [formula] CFSE Marking
The spleen cells were prepared as described above. Following ACK lysis the cells were resuspended in 10 ml PBS, counted and adjusted to 2×10^7 cells per ml. The cell suspension was mixed with an adequate volume of a 6 μM or 0.6 μM CFSE solution (in PBS) and incubated for 4 min at 37° C. The reaction was then stopped following addition of double the volume of ISC medium supplemented with 10% foetal calf serum (FCS). The cells were washed twice with FCS-free medium and counted.
To determine the functionality of the activated cells an in vivo killer assay was carried out 6 days after immunisation. For this purpose syngenic spleen cells marked with a high CFSE concentration were charged with peptide, mixed 1:1 with cells marked with a weak CFSE concentration and not charged with peptide and transferred i.v. into the mice. […] The fluorescence of the spleen cells in the FL-1 channel (CFSE) can be seen in each case. The lysis was calculated to the number of uncharged cells and is given in percent (B).
To determine the functionality of the activated cells an in vivo killer assay was carried out 6 days after immunisation. […] The fluorescence of the spleen cells in the FL-1 channel (CFSE) can be seen in each case. The specific lysis was calculated to the number of uncharged cells and is given in percent.

The subject of assay [2] is TCR transgenic cytotoxic T cells (CTL), CD45.1-positive CD8+. The assay can be described thus: Analysis of the number of adoptively transferred transgenic cytotoxic T cells (CTL) in blood/spleen after immunisation (flow cytometry). It is filed as in vivo, mice. The source says: In this model a defined transgenic, which codes for a specific T cell receptor that recognises a specific MHC class I ligand ([…] (SEQ ID NO: 23); abbreviated to SGP) from the adenovirus type 5 in the context of MHC class I (H2-D^b), was introduced into mice. As already characterised by the inventors [“M. Hofmann, M. Radask, G. Rechtsteiner, K. Wiemann, M. Grander, U. Bien-Gräter, R. Offfringa, R.E.M. Toes, H.G. Rammensee, H. Schild; T cell avidity determines the level of CTL activation; Eur. J. Immunol. 2004: 34, 1798 to 1806”], the cytotoxic T cells (CTL) from these animals were only activated if they came into contact with this MHC class I ligand SGP in the context of H2-D^b. To be able to follow the activation of this CTL in the recipient animal the non-activated (naïve) CTL from transgenic donor mice was intravenously (i.v.) injected into syngenic recipient mice which differed in the allele of a lymphocyte marker (CD45.1 on transgenic cells or CD45.2 on cells of the recipient mice). […]
To measure the proliferation of the adoptively transferred cells blood was taken from the tail vein of the mice 4 days after the last immunisation and the blood sample was analysed flow cytometrically. […] For flow cytometric analysis of the cells they were stained with fluorescence-marked antibodies (anti-CD8 APC-Cy7-conjugated, anti-CD45.1 PE-conjugated (commercially available from Becton-Dickinson Pharmingen, Hamburg)) and, more precisely, for 30 min in 50 μl FACS buffer on ice in 96-well circular bottomed plates. The cells were washed twice with FACS buffer and analysed in a FACS-canto flow cytometer (Becton-Dickinson Pharmingen, Hamburg). […]
The transgenic CD8^+ cell content in the total population of CD8^+ cells was flow cytometrically determined in the blood or spleen. […] The fluorescence in the FL-2 channel (PE) of the CD8^+ lymphocytes can be seen in each case. […] In all mice the transgenic CD8^+ cells content prior to immunisation and 4 days after immunisation was determined in the spleen (A).
A general note: A flow cytometer gives signals particle by particle.

Consider `CC(C)Cn1cnc2c(N)nc3ccccc3c21` [imiquimod, 1-(2-methylpropyl-)1H-imidazo[4,5-c]quinolin-4-amine, reference compound], for which, in assay [1], the “specific reaction (FIG. 2, functionality of transcutaneously activated CTL)” value is “did not exhibit a specific reaction”.
As for “SGPSNTPPEI (Adenovirus type 5) [peptide, MHC class I ligand (H2-Db) from the E1A protein of adenovirus type 5, synthetically produced]”, in assay [2] (Group 3: 50 μg peptide (i.d.) alone, day 4, blood), the “% transgenic CD8+ in total CD8+, Day 4 Blood” value is on record as 4.38%. Moreover, in assay [2] (Group 3: 50 μg peptide (i.d.) alone, day 6, spleen), the “% transgenic CD8+ in total CD8+, Day 6 Spleen” value stood at 2.04%. Further, the “increase in transgenic cells” value in assay [2] (peptide applied on its own (without additives, adjuvants)) is given as “only a marginal increase”. Besides, in assay [1] (Group 3: 50 μg peptide (i.d.) alone, 6 days after immunisation), the “Specific lysis (%)” value came out at 3.51%. Also, in assay [1] (immunisation with peptide only (group Mouse 3), FIG. 1B), the “functional activation of the CTL” value was “does not lead to functional activation”. Besides, in assay [1], the “specific reaction (FIG. 2, functionality of transcutaneously activated CTL)” value was “did not exhibit a specific reaction”.
